Values of other authors in article PMC8154576, “GPR120/FFAR4 Pharmacology: Focus on Agonists in Type 2 Diabetes Mellitus Drug Discovery” (Journal of Medicinal Chemistry, 2021).
Where two headings read alike, the source gives them in different places. Marks after values point to notes of the source that are not given here. Blank lines part the entries; values can stand above or below the compound they belong to.

Experiments:
hGPR120 [1] = tested on: hGPR120
hGPR40 [2] = conditions: for EC50: read-out: hGPR40 EC50 (Ca2+)
[3] = design: method as in PMID 24881566
[4] = tested on: human intestinal NCI-H716 cell line; design: method as in PMID 24881566
MIN6 cell line = tested on: MIN6 cell line; design: method as in PMID 24881566; conditions: glucose 25 mM, compared to glibenclamide
hGPR120 [5] = conditions: for EC50: read-out: hGPR120 EC50 (β-arr)
[6] = not given; remark: listed apart in the source
C57BL/6J mice = conditions: for reduction of plasma glucose, ΔAUC in IPGTT: C57BL/6J mice
[7] = tested on: rat’s anterior pituitary adenoma GH3 cells; design: method as in PMID 29843779
GPR120 [8] = tested on: GPR120
mice = conditions: for reduction of plasma glucose, ΔAUC in OGTT: C57BL/6DIO mice
[9] = design: method as in PMID 27570890
[10] = tested on: Zucker diabetic fatty rats; design: method as in PMID 28148462; conditions: 2 weeks, vehicle 192 mg/dL
db/db mice = tested on: db/db mice; design: method as in PMID 28148462; conditions: at the same concentrations (10 and 100 mg/kg), vehicle 276 mg/dL
[11] = not given; remark: listed apart in the source
hGPR120 [12] = conditions: for EC50: Table 3, read-out: hGPR120 EC50 (IP1)
hGPR40 [13] = tested on: hGPR40
GPR120 [14] = tested on: GPR120; design: method as in PMID 29206860; conditions: cAMP assay in a CHO cell line; read-out: EC50 increase of cAMP levels
lean mice = tested on: lean mice; design: method as in PMID 29206860; conditions: pretreatment
STC-1 cells = conditions: enteroendocrine STC-1 cell line
[15] = tested on: MCF-7 and MDA-MB-231 cell lines; design: method as in PMID 26821052
[16] = tested on: pancreatic cancer PANC-1 cells; design: method as in PMID 26282200
MDA-MB-231 cell line = tested on: MDA-MB-231 cell line; design: method as in PMID 28456993
mGPR120 = tested on: mGPR120; design: method as in PMID 27815121
[17] = Table 2, read-out: hGPR120 EC50 (Ca2+)
[18] = Table 3, read-out: hGPR40 EC50 (IP1)

SMILES: CC(C)=CCC/C(C)=C/CC/C(C)=C/Cc1c(O)cc(C)c(C(=O)O)c1O [Compound 7, grifolic acid]
necrosis of GH3 cells [7]: dose- and time-dependently induced the necrosis

SMILES: N#C[C@@H]1C[C@@H]2C[C@@H]2N1C(=O)[C@@H](N)C12CC3CC(CC(O)(C3)C1)C2 [saxagliptin]
reduction of plasma glucose, ΔAUC in OGTT (mice; 1 mg/kg): 87%

SMILES: CCCCC/C=C\C/C=C\CCCCCCCC(=O)OC [1’s methyl ester]
GPR120 activity in vitro (GPR120 [8]): inactive in vitro

SMILES: OCCCc1c(F)cc(OCc2c(-c3ccc(Cl)cc3)csc2C(F)(F)F)cc1F [Compound 30]
outcome in IPGTT (C57BL/6J mice; GPR120 C57BL6 mice): positive outcomes
outcome in OGTT (mice; GPR120 DIO mice): positive outcomes

SMILES: Cc1ccc(S(=O)(=O)NC2c3ccccc3Oc3ccccc32)cc1 [Compound 5]
migration induced by 1 (MDA-MB-231 cell line): inhibited

SMILES: O=C(O)CC1CCC2(CC1)CCN(c1cc(OC(F)(F)F)ccc1Cl)CC2 [Compound 26]
EC50 (hGPR40 [13]; [18]): > 10000 nM
unbound clearance ([11]; rat, mouse, dog, and Rhesus): too high unbound clearance
whole blood glucose levels in OGTT (mice; lean mice (wild-type/GPR120 KO), 30 and 100 mg/kg): dose-dependently reduced whole blood glucose levels
insulin resistance (HOMA-IR) (DIO mice; hyperinsulinemic-euglycemic DIO mouse clamp, days 14 and 28): reduction in insulin resistance

The next lines start with results.

hGPR120 pEC50 (Ca2+) (hGPR120 [1]; Table 4): 6.3 ^d
hGPR40 pEC50 (Ca2+) (hGPR40 [2]; Table 4): <4.5 ^d
solubility in simulated intestinal fluid (FASSIF) [3]: weak solubility
SMILES: COc1ccc(S(=O)(=O)Nc2c(C)cc(C)cc2C)cc1 [Compound 31]
GLP-1 secretion [4]: evoked GLP-1 secretion
insulin output in GSIS (MIN6 cell line): dose-dependently increased insulin output
selectivity for GPR120 over more than 65 targets, including GPR40, GPR43, GPR41: at least 100 fold

EC50 (hGPR120 [1]; [17]): 57 nM
EC50 (hGPR120 [5]; Table 2): 60 nM
pharmacokinetic (PK) profile [6]: good pharmacokinetic (PK) profile
SMILES: CCc1ccc(-c2noc(C(F)(F)F)c2COc2c(F)cc(CCC(=O)O)cc2F)cc1 [Compound 20]
reduction of plasma glucose, ΔAUC in IPGTT (C57BL/6J mice; 1 mg/kg): 30%
reduction of plasma glucose, ΔAUC in IPGTT (C57BL/6J mice; 3 mg/kg): 35%
reduction of plasma glucose, ΔAUC in IPGTT (C57BL/6J mice; 10 mg/kg): 54%

hGPR120 pEC50 (Ca2+) (hGPR120 [1]; Table 4): 6.63 ^d
hGPR120 pEC50 (β-arr) (hGPR120 [5]; Table 4): 6.91 ^d
solubility in PBS [9]: relatively low solubility
SMILES: O=S1(=O)c2ccccc2CN1c1cc(F)cc(Oc2ccccn2)c1 [Compound 32]
selectivity for GPR120 over GPR40 (GPR120 [8]): > 300 fold
glucose levels in OGTT (mice; C57BL6 mice, 10 mg/kg orally, compared to vehicle control): decrease in glucose levels
decrease in body weight, chronic study (DIO mice; DIO wild-type mice): 7–9%
glucose levels, chronic study (DIO mice; DIO wild-type mice): reduced glucose levels
effect in chronic study (DIO mice; mice lacking GPR120): no effect

EC50 (hGPR120 [1]; Table 1, read-out: hGPR120 EC50 (Ca2+)): 299 nM
EC50 (hGPR40 [2]; Table 1): 11800 nM
oral bioavailability ([6]; C57BL/6J mice): excellent oral bioavailability
SMILES: COc1ccc(C(F)(F)F)cc1COc1ccc(CCC(=O)O)cc1C [Compound 19]
selectivity GPR120/GPR40, human (hGPR120 [1]): 40 fold
selectivity GPR120/GPR40, mouse (mouse GPR120): 80 fold
whole blood glucose levels ([10]; 10 mg/kg): 151 mg/dL
whole blood glucose levels ([10]; 100 mg/kg): 139 mg/dL
glucose levels (db/db mice): 106 mg/dL

EC50 (hGPR120 [1]; [17]): 80 nM
EC50 (hGPR120 [1]; low-expressing endogenous HT-29 cell line, read-out: EC50 hGPR120 calcium assay): 137 nM
EC50 (hGPR120 [5]; Table 2): 69 nM
EC50 (hGPR40 [2]; Table 2): 3340 nM
EC50 (mouse GPR120; read-out: EC50 GPR120 calcium assay in mouse): 193 nM
clearance ([11]; mouse, rat, and dog): low clearance
half-life ([11]; mouse, rat, and dog): suitable half-life
SMILES: O=C(O)CCc1cc(F)c(OCc2c(C(F)(F)F)ccn2-c2ccc(Cl)cc2)c(F)c1 [Compound 22]
GPR120 selectivity over GPR40, human (hGPR120 [1]; calcium assay): 42 fold
GPR120 selectivity over GPR40, mouse (mouse GPR120; calcium assay): 18 fold
reduction in glucose levels in OGTT (mice; diet-induced obese mice, 3 mg/kg, vs saxagliptin 1 mg/kg): comparable to saxagliptin

EC50 (hGPR120 [5]; Table 3): 24 nM
EC50 (hGPR120 [12]): 35 nM
EC50 (hGPR40 [13]; [18]): > 10000 nM
half-life ([11]; several species): long half-life
oral bioavailability ([11]; several species): high oral bioavailability
SMILES: COC1CC(Oc2cc(F)c(F)c(-c3ccc4c(c3)CCC(CCC(=O)O)O4)c2)C1 (centres unmarked) [Compound 24]
in vivo efficacy in OGTT (mice): good in vivo efficacy
glucose levels in OGTT (mice; 3 and 10 mg/kg): dose-dependently reduced glucose levels

EC50 (hGPR120 [1]; Table 3, read-out: hGPR120 EC50 (Ca2+)): 740 nM
EC50 (hGPR40 [2]; Table 3): > 100000 nM
EC50 (muGPR40; FLIPR format, overexpressed mouse GPR40 in cell line, unit inferred): > 100000 nM
oral exposure [11]: moderate oral exposure
SMILES: Cc1ccc(-n2nc(C)c3cnc(-c4ccc([C@@H]5C[C@H]5C(=O)O)cc4F)cc32)nc1 [Compound 28]
decrease in oral glucose excursion in OGTT (mice; C57BL/6J mice): 45%
effect on glucose excursion in OGTT (mice; GPR120 KO mice): no effect
reduction of glucose excursion in OGTT (mice; wild-type mice): 47%
selectivity over 30 several targets: good selectivity

EC50 (hGPR120 [5]; Table 3): 84 nM
EC50 (hGPR120 [12]): 220 nM
EC50 (hGPR40 [13]; [18]): > 10000 nM
SMILES: Fc1ccc(OC2CCC2)cc1-c1ccc2c(c1)CC[C@H](CCc1nnn[nH]1)O2 [Compound 25]
in vivo efficacy in OGTT (mice): good in vivo efficacy

EC50 (hGPR120 [1]; [17]): 42 nM
EC50 (hGPR120 [5]; Table 2): 143 nM
EC50 (hGPR40 [2]; Table 2): > 5000 nM
pharmacokinetic profile [11]: good pharmacokinetic profile
SMILES: O=C(O)CCc1cc(F)c(OCc2c(-c3ccc(Cl)cc3F)nsc2C(F)(F)F)c(F)c1 [Compound 21]
reduction of plasma glucose, ΔAUC in OGTT (mice; 1 mg/kg): 61%
reduction of plasma glucose, ΔAUC in OGTT (mice; 3 mg/kg): 83%

EC50 (hGPR120 [1]; Table 4, read-out: hGPR120 EC50 (Ca2+)): 120 nM
EC50 (GPR120 [14]): 60 nM
SMILES: C#Cc1cc(Oc2cccnc2)cc(N2Cc3ccccc3S2(=O)=O)c1 [Compound 33]
activity against mGPR40 (muGPR40): no activity
glucose levels in OGTT (mice; lean male mice): reduce dose-dependently glucose levels
insulin concentration in IVGTT (lean mice): increase of insulin concentration
GLP-1 secretion (STC-1 cells): boost GLP-1 secretion

percentage of receptor activation, hGPR120 (hGPR120 [12]): 73%
EC50 (hGPR120 [12]): 63 nM
EC50 (hGPR40 [13]; read-out: IP1 EC50 GPR40): 1830 nM
percentage of receptor activation, mGPR120 (mGPR120): 75%
PK properties (oral bioavailability, half-life, plasma clearance) ([6]; mouse): suitable PK properties
SMILES: O=C(O)CCc1cc2cc(-c3cc(C(F)(F)F)ccc3F)ccc2o1 [Compound 23]
selectivity over hGPR40 (hGPR120 [12]): 29 fold
blood glucose levels in OGTT (mice; wild-type and GPR120 KO mice, 30 and 100 mg/kg): acute reduction of blood glucose levels
